Measured values as given in patent US11998589B2, “PEGylated peptide amphiphile nanofibers and methods of use” (Northwestern University, priority 2020, dated 2024).
Square brackets hold non-standard residues; d marks the D form. Peptide text beside a SMILES is read from it. * marks the point of attachment. PEG10 = NCCOCCOCCOCCOCCOCCOCCOCCOCCOCCOCCC(=O)O; Palmitoyl = CCCCCCCCCCCCCCCC(=O)*

Key:
[1] = Cytotoxicity (calcein / ethidium homodimer live-dead staining); assay type: cell-based; settings: human, nHLF cultures, 36 hours culture; for viability at 36 h: normal human lung fibroblasts (nHLF), up to 100 μM PA, read-out: cells staining positive for calcein (percent viable cells)
Method: Cytotoxicity: Normal Human Lung Fibroblasts were obtained from Lonza and maintained in growth medium consisting of DMEM with 10% fetal bovine serum (FBS) and 1% penicillin/streptomycin. Cells (passage 5) were tryspinized and resuspended in media containing 2% FBS and 150 μl of the cell suspension was added to each well of a 96 well microplate for a total of 2,500 cells per well. After 2 hours attachment, 50 μl PA solutions diluted in PBS to 4 μM, 20 μM, 100 μM, or 400 μM were added to each well. After 36 hours culture, the media was removed and replaced with a solution of 2 μM calcein and 4 μM ethidium homodimer in PBS. After 30 minutes, cells were imaged using a Cytation 3 microplate reader. Live and Dead cells were counted using the MATLAB image Processing Toolbox to determine viability.

[2] = Resuspension of purified PA in water; assay type: physicochemical; settings: purified molecule in water
Method: Solubilization and Heat Treatment: PA powders were resuspended to 10 mM in water for experiments at pH 7, in 10 mM hydrochloric acid for pH 2 and 10 mM sodium hydroxide for pH 12. After resuspension, 1 M sodium hydroxide or 1 M hydrogen chloride were added to achieve the desired pH. To co-assemble PA molecules, PA solutions were mixed volumetrically, bath sonicated for 1 hour and then left on the bench to age for at least 2 hours. A solution of 150 mM NaCl was added to all samples to achieve a final NaCl concentration of 30 mM. All samples were heat treated at 80° C. for 30 minutes followed by gradual cooling by 1° C. per minute to 25° C.
To produce PA filaments without ionic charge, a short PEG chain was substituted for the ionizable amino acids typically included in PA molecules to maintain solubility of the PA in an aqueous environment. To form an uncharged PA filament, the sequence N-palmitoyl-VVAA was chosen as the aliphatic tail and hydrogen bonding peptide. As the hydrophilic domain, a 10-mer PEG amino acid was selected, which was hypothesized to be long enough to solubilize the PA while limiting steric repulsion among assembled molecules (PA1, FIG. 2A). The PA was synthesized by coupling the PEG amino acid to a rink-amide resin and completing the peptide using standard Fmoc solid phase peptide synthesis, leaving an uncharged amide group after cleavage from the resin. […]

[3] = tested on: Human mesenchymal stem cells; assay: Alkaline phosphatase (ALP) activity, osteogenic differentiation; assay type: cell-based; settings: human MSCs, one week
Method: Alkaline Phosphatase Activity: Human mesenchymal stem cells were obtained from Lonza and maintained in Mesenchymal Stem Cell Growth Media (Lonza). Cells were used for experiments prior to passage 6. Cells were trypsinized and resuspended in growth media containing high glucose DMEM supplemented with 10% FBS and 1% penicillin/streptomycin and 50 mg/L sodium ascorbate. 500 μl of the cell suspension was placed in each well of a 24 well plate and incubated for 24 hours. Media was removed and replaced with 540 μl of growth media or osteogenic media containing low glucose DMEM supplemented with 10% FBS, 50 mg/L sodium ascorbate 10 mM 3-glycerophosphate, and 100 nM dexamethasone. 60 μl of a 10 times concentrated PA solution in PBS was then added to each well. Every 3-4 days, media was replaced by removing 300 μl media and adding 270 μl growth media or osteogenic media and 30 μl of the 10 times concentrated PA solution in PBS. Alkaline phosphatase (ALP) activity was determined using the SensoLyte pNPP ALP Assay Kit (Anaspec, Fremont, CA) according to the manufacturer's instructions. […] The supernatant was mixed with the assay's detection buffer in a microplate and the optical absorbance was read after a four-hour incubation using a Cytation 3 microplate reader. […]

[4] = Zeta potential of PA solutions; assay type: physicochemical; settings: for surface charge (zeta-potential), sign: neutral pH
Method: Zeta potential: Heat-treated PA solutions were diluted 20 times in 30 mM NaCl with 10 mM HCl, 30 mM NaCl, or 30 mM NaCl with 10 mM NaOH for pH 2, pH 7, and pH 12 respectively. For each PA, three separate samples were prepared at each pH. Samples were loaded in a disposable folded capillary cell and zeta-potential was measured at 25° C. using a Zetasizer Nano ZS (Malvern Instruments, Malvern, UK). The average of the three measurements for each sample was plotted.

[5] = Nile red assay of aggregation; assay type: physicochemical; settings: buffers of 0 mM, 15 mM and 150 mM NaCl
Method: Nile Red Assay: Following heat treatment, PA solutions were serially diluted in water (0 mM NaCl), or a buffer of 15 mM NaCl, or 150 mM NaCl. A solution of 100 μM Nile red was added to the PA solutions to one thousandth the total volume and incubated for 1 hour. The fluorescence spectrum was read from 600 nm to 700 nm using a BioTek Cytation 3 microplate reader using 560 nm excitation and the fluorescence shift was determined by subtracting the maximum […] wavelength for each sample from that of the dye solution diluted in each buffer alone.

Row | Compound | viability at 36 h [1] | surface charge (zeta-potential), sign [4] | aggregation as indicated by redshift in Nile red fluorescence, dependence on ionic strength [5] | other results
1 | CCCCCCCCCCCCCCCC(=O)N[C@H](C(=O)N[C@H](C(=O)N[C@@H](C)C(=O)N[C@@H](C)C(=O)NCCOCCOCCOCCOCCOCCOCCOCCOCCOCCOCCC(N)=O)C(C)C)C(C)C [PA1] (Palmitoyl-VVAA[PEG10]-NH2) | > 85% |  |  | solubility in water (resuspension) [2]: readily resuspended in water
2 | CCCCCCCCCCCCCCCC(=O)N[C@H](C(=O)N[C@H](C(=O)N[C@@H](C)C(=O)N[C@@H](C)C(=O)N[C@@H](CCC(=O)O)C(=O)N[C@@H](CCC(=O)O)C(N)=O)C(C)C)C(C)C [PA2] (Palmitoyl-VVAAEE-NH2) | > 85% | negatively | depended on ionic strength of the buffer | ALP activity (osteogenic differentiation) in growth media ([3]; growth media, various PA concentrations): increased with increasing PA2 concentration; ALP activity (osteogenic differentiation) in osteogenic media ([3]; osteogenic media with dexamethasone and β-glycerophosphate): did not affect differentiation
3 | CCCCCCCCCCCCCCCC(=O)N[C@H](C(=O)N[C@H](C(=O)N[C@@H](C)C(=O)N[C@@H](C)C(=O)N[C@@H](CCCCN)C(=O)N[C@@H](CCCCN)C(N)=O)C(C)C)C(C)C [PA3] (Palmitoyl-VVAAKK-NH2) |  | positively charged | less dependent on ionic strength than PA2 | EC50 at 36 h ([1]; Normal Human Lung Fibroblasts (nHLF)): 25 ± 4 µM
4 | N-palmitoyl-VVAAEE-PEG10 [PA4] |  |  |  | Zeta-potential (surface charge) ([4]; pH 2): ~0 mV
5 | N-palmitoyl-VVAAKK-PEGio [PA5] |  |  |  | Zeta-potential (surface charge) ([4]; pH 12): ~0 mV
